In US20260206745A1, “DOUBLE ENCAPSULATED NANOCOMPOSITE FOR STAGED DELIVERY OF ACTIVE INGREDIENT(S), AND A METHOD OF PRODUCING THEREOF” (COUNCIL OF SCIENTIFIC AND INDUSTRIAL RESEARCH, priority 2022, published 2026) one finds ATZ released and maximum degradation temperature data, which are given here for one compound.

Data set [1] in a line: In vitro atrazine release from nanoformulations (dialysis). Format: physicochemical. As to conditions: after 94 hours, DI water, dialysis 12 kDa. How it is done: B) In vitro atrazine release from nanoformulations: A dialysis tubing (MWCO 12 kDa, Sigma-Aldrich, St. Louis, USA) was taken with nfATZ (2 mg), where the total amount of ATZ loaded was 200 μg. In another dialysis tubing, 200 μg of ATZ (bulk form) dispersed in 2 ml of distilled water (DW) with 0.1% w/v sodium azide was taken. These dialysis bags were kept in 18 mL of DW containing sodium azide, and the release studies were done at 37° C. in a shaker bath (SW23, Julabo, Seelbach, Germany) at 50 rpm. At regular intervals, 1 mL of DW was withdrawn and replaced with 1 mL of fresh DW to maintain the sink conditions. The withdrawn DW was analyzed for the amount of ATZ released using a UV-visible spectrophotometer at λmax of 222 nm. […] After 94 hours of release studies, 60% of ATZ was released in the case of plain ATZ, while 22% of ATZ was released from the nfATZ. […] From this observation, it is noted that the another […] of release from the nano-formulation can extend up to 30 days. From these studies, inventors concluded that the nanoformulations is the best choice to control the weeds for an extended period, which can be manipulated as desired by changing concentration of EC and ATZ.

Data set [2] in a line: Thermal gravimetric analysis (TGA). Format: physicochemical. To be noted: TGA under N2, 10° C. min^−1. The source says:
A) Characterization: The morphology and size distribution of the nf and nfATZ were observed using a field emission scanning electron microscope (FE-SEM; Nova NanoSEM 450, FEI, Hillsboro, USA) and a high-resolution transmission electron microscope (HR-TEM; Tecnai TF20, 200 kV FEG, FEI, Hillsboro, USA). The ζ-potential and particle size distribution of nf and nfATZ were estimated using a PALS zeta potential analyzer (Brookhaven Instruments, Holtsville, USA). The material structural analysis was determined using a Fourier transform infrared spectrometer (FTIR; PerkinElmer, Waltham, USA) and X-ray diffractometer (XRD; PANalytical X'Pert PRO, Malvern Panalytical, Malvern, UK). The interaction between ATZ and EC was analyzed using differential scanning calorimetry (DSC). […]
The nf depicts a shift in Tg from 121° C. to 131º° C. […] The nfATZ recorded a Tg at 125° C.; a shift in the Tg from 131° C. […] Two-stage decomposition temperatures were recorded for pristine EC, 50-95° C., due to loss of moisture (weight loss, 2.9%) and 150-380° C. due to fragmentation of chemical bonds (weight loss, 85%). […] Further, it is observed that nfATZ recorded a broad first derivative peak for the weight loss, which may be due to the merging of two first derivative peaks, one for ATZ and the other for EC.

Turning to `CCNc1nc(Cl)nc(NC(C)C)n1` [plain ATZ, Atrazine], in data set [1], the ATZ released was 60%. The compound also displayed a maximum degradation temperature in data set [2] of 230 °C.
